Data: ChEMBL document CHEMBL1201862, “PubChem BioAssay data set” (2004)
Activity calls are given as the source filed them. Cut-off read from the data, not from the text of the source, for most assays here: actives have a measured IC50 and inactives only a lower limit.

Assays:
Bcl-2-like protein 10 = Bcl-2-like protein 10 (Homo sapiens, UniProt Q9HD36); assay: displacers of TR3 peptide from Bcl-B, primary screen, selectivity assay for Bfl-1 inhibitor project, biochemical, fluorescence polarization, FITC-TR3 peptide (AID 748);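 note: fluorescence polarization from a fluorescein-labelled TR3 peptide binding purified Bcl-B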
[1] = biological target: Induced myeloid leukemia cell differentiation protein Mcl-1 (Homo sapiens, UniProt Q07820); assay type: functional
[2] = biological target: T1, Hepatocyte nuclear factor 4-alpha (Homo sapiens, UniProt P41235); assay type: functional, cell-based;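 note: biochemical luminescence-based dose-response counterscreen measuring inhibition of HNF4 dimerization, run alongside a screen for blockers of ABHD5–perilipin-5 interaction; split luciferase complementation of HNF4 fusion proteins in cell lysate measuring dimerization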
T1 sequence (P41235 whole entry): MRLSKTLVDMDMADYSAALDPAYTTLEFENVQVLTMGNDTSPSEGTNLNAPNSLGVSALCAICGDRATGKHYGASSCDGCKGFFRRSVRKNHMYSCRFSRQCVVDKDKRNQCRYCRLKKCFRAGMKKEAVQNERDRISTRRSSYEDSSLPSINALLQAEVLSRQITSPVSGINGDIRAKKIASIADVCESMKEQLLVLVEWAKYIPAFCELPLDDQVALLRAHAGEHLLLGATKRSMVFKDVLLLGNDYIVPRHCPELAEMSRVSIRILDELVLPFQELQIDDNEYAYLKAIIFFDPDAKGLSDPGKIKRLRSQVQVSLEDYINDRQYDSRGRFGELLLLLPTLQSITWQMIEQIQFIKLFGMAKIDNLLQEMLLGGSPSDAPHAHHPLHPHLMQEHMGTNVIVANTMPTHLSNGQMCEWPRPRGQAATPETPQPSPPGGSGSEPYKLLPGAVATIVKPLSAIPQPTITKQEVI

[3] = biological target: Glyceraldehyde-3-phosphate dehydrogenase (Homo sapiens, UniProt P04406)
[4] = biological target: Tyrosine-protein phosphatase non-receptor type 12 (Homo sapiens, UniProt Q05209); assay: SAR Selectivity Analysis of small molecule inhibitors of PEST using pCAP in a fluorescence assay. [Related pubchem assays (depositor defined):AID1779, AID1784, AID2135]; assay type: functional
[5] = biological target: T2, Tyrosine-protein phosphatase non-receptor type 22 (Homo sapiens, UniProt Q9Y2R2); assay: SAR LYP1 Fluorescent Assay using OMFP substrate for In Vitro dose response studies - Set 3. [Related pubchem assays (depositor defined):AID1779, AID1784, AID2140, AID2686]; assay type: functional
[6] = biological target: T2, Tyrosine-protein phosphatase non-receptor type 22; assay: LYP (PTPN22) phosphatase inhibitor potency, SAR follow-up, biochemical, pCAP fluorogenic substrate, fluorescence, set 3 (AID 449727); assay type: functional
[7] = biological target: T3, Tyrosine-protein phosphatase non-receptor type 7 (Homo sapiens, UniProt P35236); assay type: functional
T3 sequence (P35236 whole entry): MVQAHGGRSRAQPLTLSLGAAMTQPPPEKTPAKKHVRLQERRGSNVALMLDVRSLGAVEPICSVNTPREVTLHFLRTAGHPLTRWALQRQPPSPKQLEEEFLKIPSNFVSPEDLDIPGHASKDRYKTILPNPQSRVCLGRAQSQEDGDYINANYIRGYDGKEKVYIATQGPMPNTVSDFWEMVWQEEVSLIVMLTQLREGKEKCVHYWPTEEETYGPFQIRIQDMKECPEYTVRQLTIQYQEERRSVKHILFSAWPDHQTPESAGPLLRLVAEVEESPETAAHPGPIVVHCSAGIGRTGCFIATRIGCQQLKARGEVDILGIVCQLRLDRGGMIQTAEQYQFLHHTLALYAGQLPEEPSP

[8] = biological target: Heat shock cognate 71 kDa protein (Homo sapiens, UniProt P11142); assay: In Vitro Hsc70 Dose Response Fluorescence Polarization Assay. [Related pubchem assays: 1072 ]
[9] = biological target: Heat shock 70 kDa protein 1A (Homo sapiens, UniProt P0DMV8); assay: Hsp70 inhibitors, SAR follow-up, biochemical, fluorescence polarization (AID 1072)
[10] = biological target: T4, Dual specificity protein phosphatase 6 (Rattus norvegicus, UniProt Q64346)
T4 sequence (Q64346 whole entry): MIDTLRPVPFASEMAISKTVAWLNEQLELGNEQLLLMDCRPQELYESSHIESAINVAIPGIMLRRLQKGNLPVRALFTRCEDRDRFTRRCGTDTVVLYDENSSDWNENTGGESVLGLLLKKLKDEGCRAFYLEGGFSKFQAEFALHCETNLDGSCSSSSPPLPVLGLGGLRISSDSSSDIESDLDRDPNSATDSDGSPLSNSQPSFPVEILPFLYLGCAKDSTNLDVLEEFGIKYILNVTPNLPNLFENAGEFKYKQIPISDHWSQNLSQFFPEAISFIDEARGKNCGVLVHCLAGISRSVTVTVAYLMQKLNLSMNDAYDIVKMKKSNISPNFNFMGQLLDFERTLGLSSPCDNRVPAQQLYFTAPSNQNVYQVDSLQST

[11] = biological target: T4, Dual specificity protein phosphatase 6; assay type: functional
[12] = biological target: DNA (cytosine-5)-methyltransferase 1 (Homo sapiens, UniProt P26358); assay: DNMT1 methyltransferase inhibitors, confirmation, biochemical, fluorescent molecular beacon (AID 602386); assay type: functional
Caspase-6 = biological target: T5, Caspase-6 (Homo sapiens, UniProt P55212); assay: human caspase-6 inhibitors, dose response, biochemical, VEID-R110 fluorescence, cherry-pick (AID 720632)
T5 sequence (P55212 whole entry): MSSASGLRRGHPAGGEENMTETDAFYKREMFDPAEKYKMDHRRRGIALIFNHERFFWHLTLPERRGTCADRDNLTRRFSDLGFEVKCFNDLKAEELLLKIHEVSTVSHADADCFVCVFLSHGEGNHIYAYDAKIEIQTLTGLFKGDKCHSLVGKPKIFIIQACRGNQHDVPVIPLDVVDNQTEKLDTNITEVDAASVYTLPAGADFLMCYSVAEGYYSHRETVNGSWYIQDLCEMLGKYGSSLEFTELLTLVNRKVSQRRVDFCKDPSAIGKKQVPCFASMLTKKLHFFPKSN

Caspase-7 = Caspase-7 (Homo sapiens, UniProt P55210); assay: human caspase-7 inhibitors, dose response, selectivity assay for caspase-6 inhibitor project, biochemical, DEVD-R110 fluorescence, cherry-pick (AID 743295)
Caspase-8 = Caspase-8 (Homo sapiens, UniProt Q14790); assay: caspase-8 inhibition counter-screen, dose response, selectivity assay for caspase-6 inhibitor project, biochemical, Z-IETD-R110 fluorescence, cherry-picked samples (AID 743294)
HEK293 = assay: Fluorescence-based counterscreen for potentiators or agonists of NPY-Y2: cell-based high-throughput dose response assay to identify inhibitors of cyclic nucleotide gated ion channel (CNGC) activity. In this assay, the parental HEK293 cell line transfected with a cyclic-nucleotide gated ion channel (CNGC)-based cAMP sensor is used to measure inhibition of isoproterenol-induced CNGC activity by test compound.; assay type: functional; details: Homo sapiens;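 note: stimulus is 1 µM isoproterenol at EC100 plus PDE inhibitor Ro 20-1724 at 25 µM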
[13] = biological target: T6, Neuropeptide Y receptor type 2 (Homo sapiens, UniProt P49146); assay: Fluorescence-based cell-based high-throughput dose response assay for agonists of NPY-Y2. [Related pubchem assays: 1703 (Screening assay (CNGC inhibitors).), 1359 (Screening assay (NPY-Y2 potentiators or agonists).), 1304 (Screening assay (NPY-Y1 potentiators or agonists).), 1710 (Screening assay (NPY-Y2 agonists).), 1791 (Summary AID.)]; assay type: functional
T6 sequence (P49146 whole entry): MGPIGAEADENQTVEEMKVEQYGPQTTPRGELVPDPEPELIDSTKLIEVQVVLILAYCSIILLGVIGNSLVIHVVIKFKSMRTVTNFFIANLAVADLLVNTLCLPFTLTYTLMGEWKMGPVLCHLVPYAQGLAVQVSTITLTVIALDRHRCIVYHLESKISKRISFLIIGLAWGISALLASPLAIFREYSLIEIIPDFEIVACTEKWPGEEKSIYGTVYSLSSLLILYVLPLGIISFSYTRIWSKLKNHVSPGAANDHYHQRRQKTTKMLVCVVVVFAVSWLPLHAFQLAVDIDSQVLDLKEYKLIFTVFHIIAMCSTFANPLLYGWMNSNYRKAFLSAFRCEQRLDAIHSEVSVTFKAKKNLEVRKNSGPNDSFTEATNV

[14] = biological target: T7, Neuropeptide Y receptor type 1 (Homo sapiens, UniProt P25929); assay: Fluorescence-based counterscreen for agonists of NPY-Y2: cell-based high-throughput dose response assay for agonists of NPY-Y1.; assay type: functional
T7 sequence (P25929 whole entry): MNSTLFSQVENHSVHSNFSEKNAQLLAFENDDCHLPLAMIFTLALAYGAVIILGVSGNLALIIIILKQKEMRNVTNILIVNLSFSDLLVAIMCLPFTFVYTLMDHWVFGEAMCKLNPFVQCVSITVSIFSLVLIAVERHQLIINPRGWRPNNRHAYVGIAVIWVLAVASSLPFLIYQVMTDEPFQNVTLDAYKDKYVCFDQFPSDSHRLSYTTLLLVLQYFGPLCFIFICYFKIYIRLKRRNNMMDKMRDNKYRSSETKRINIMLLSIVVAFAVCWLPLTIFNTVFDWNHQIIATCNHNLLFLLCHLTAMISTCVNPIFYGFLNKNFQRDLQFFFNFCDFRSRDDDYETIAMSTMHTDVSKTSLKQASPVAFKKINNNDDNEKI

Sequence of Glyceraldehyde-3-phosphate dehydrogenase (P04406 whole entry): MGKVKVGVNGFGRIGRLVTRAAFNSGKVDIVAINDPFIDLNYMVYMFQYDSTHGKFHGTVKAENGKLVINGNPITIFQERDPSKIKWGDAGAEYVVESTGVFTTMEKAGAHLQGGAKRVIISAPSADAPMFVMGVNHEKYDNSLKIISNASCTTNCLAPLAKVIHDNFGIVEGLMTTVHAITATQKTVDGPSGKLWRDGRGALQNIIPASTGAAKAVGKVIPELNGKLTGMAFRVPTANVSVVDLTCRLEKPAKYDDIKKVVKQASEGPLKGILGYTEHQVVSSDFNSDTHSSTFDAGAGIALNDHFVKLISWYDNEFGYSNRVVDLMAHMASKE
T2 sequence (Q9Y2R2 whole entry): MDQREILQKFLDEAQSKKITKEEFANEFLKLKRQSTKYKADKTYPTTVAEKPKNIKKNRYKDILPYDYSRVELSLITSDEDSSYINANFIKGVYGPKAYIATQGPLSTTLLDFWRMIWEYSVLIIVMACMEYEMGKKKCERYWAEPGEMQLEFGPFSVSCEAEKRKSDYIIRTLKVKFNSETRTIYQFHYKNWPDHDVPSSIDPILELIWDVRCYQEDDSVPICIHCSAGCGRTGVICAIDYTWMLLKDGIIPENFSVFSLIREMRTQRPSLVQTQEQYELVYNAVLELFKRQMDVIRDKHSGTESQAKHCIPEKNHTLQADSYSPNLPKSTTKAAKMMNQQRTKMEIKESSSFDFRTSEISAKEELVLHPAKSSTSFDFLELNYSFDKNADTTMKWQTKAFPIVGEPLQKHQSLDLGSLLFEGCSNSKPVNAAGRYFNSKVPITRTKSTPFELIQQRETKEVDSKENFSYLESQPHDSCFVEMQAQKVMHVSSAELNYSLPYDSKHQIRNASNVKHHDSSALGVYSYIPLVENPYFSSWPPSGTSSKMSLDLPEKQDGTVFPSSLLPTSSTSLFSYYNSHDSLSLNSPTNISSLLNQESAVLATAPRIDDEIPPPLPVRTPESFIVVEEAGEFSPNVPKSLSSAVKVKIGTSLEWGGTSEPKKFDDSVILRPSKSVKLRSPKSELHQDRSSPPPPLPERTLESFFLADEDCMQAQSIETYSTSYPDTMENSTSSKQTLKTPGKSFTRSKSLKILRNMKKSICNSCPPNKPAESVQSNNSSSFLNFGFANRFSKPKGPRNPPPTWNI
Sequence of Induced myeloid leukemia cell differentiation protein Mcl-1 (Q07820 whole entry, the tested form may be a part): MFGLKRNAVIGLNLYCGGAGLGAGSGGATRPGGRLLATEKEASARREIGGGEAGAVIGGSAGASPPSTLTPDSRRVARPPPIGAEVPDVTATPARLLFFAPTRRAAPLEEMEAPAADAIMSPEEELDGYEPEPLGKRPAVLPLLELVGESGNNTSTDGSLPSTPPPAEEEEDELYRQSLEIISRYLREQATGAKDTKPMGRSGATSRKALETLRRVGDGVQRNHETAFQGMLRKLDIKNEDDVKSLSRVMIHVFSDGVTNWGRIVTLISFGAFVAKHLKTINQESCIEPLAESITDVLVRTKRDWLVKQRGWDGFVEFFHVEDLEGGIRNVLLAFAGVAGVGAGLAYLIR
Sequence of Heat shock 70 kDa protein 1A (P0DMV8 whole entry): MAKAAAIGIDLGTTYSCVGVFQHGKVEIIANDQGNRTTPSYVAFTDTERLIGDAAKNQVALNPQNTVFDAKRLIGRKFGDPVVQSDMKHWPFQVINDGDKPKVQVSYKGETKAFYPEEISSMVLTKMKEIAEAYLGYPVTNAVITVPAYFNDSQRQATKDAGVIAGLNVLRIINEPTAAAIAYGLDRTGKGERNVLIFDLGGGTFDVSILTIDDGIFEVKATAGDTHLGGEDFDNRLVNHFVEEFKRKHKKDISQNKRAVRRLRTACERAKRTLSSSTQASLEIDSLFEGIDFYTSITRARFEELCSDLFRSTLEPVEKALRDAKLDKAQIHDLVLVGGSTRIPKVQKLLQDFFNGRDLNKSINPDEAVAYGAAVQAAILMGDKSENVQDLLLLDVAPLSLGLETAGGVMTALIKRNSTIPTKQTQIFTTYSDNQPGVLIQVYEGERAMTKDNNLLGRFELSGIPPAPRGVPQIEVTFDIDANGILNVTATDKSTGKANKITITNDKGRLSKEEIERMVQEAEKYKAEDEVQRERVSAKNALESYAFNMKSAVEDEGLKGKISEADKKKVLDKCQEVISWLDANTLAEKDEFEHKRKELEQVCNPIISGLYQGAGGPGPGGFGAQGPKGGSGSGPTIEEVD
Sequence of Caspase-7 (P55210 24-198 limits assumed): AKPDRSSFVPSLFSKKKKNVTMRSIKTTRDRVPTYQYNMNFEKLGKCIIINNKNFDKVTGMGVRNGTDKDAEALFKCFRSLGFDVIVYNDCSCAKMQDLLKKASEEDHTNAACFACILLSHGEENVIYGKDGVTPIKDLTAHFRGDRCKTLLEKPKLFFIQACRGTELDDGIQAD
Sequence of Caspase-7 (P55210 207-303 limits assumed): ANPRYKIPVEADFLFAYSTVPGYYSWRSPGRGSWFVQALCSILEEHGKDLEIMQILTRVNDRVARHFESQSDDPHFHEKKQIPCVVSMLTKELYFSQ
Sequence of Heat shock cognate 71 kDa protein (P11142 whole entry): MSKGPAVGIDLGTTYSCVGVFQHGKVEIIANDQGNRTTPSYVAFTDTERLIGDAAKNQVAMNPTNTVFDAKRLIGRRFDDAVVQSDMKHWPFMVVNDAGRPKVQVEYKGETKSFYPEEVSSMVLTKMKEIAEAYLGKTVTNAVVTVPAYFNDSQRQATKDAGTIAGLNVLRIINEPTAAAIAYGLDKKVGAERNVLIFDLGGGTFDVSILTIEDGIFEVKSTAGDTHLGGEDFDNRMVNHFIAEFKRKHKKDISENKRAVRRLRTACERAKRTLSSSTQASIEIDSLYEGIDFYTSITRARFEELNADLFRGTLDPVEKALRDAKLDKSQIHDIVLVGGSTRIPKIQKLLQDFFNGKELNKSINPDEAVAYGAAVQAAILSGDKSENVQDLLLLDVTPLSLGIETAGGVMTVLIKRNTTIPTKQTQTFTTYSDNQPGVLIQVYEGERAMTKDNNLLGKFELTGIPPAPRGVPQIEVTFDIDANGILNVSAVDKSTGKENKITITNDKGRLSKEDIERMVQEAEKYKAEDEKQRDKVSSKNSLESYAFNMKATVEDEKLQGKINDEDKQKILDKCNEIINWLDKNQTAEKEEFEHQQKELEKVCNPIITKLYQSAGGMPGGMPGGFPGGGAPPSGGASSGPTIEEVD
Sequence of Tyrosine-protein phosphatase non-receptor type 12 (Q05209 whole entry): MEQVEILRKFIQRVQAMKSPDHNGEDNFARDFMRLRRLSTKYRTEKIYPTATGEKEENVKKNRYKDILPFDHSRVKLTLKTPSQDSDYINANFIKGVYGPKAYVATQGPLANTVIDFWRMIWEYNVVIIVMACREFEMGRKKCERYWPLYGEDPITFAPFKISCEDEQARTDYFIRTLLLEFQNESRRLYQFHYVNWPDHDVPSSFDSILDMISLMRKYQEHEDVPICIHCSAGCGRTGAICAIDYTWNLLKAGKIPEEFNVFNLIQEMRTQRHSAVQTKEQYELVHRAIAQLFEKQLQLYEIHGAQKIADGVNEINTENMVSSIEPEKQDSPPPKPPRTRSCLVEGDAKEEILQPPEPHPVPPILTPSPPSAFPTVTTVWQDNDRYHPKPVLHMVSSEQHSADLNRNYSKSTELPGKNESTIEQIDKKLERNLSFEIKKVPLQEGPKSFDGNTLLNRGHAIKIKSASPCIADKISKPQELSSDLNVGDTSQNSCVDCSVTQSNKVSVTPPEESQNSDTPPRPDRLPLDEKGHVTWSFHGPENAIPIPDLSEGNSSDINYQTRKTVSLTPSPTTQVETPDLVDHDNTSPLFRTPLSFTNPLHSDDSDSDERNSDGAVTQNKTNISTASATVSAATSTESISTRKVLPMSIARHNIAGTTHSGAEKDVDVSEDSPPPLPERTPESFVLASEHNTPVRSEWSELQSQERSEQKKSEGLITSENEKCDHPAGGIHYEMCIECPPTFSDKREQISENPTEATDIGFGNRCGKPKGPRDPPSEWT
Sequence of Bcl-2-like protein 10 (Q9HD36 whole entry): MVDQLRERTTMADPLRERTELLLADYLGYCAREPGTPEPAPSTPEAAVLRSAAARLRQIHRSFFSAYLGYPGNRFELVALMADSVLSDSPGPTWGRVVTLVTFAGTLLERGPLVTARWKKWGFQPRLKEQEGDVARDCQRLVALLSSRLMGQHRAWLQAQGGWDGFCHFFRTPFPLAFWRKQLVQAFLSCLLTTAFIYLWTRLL
Sequence of Caspase-8 (Q14790 217-374 limits assumed): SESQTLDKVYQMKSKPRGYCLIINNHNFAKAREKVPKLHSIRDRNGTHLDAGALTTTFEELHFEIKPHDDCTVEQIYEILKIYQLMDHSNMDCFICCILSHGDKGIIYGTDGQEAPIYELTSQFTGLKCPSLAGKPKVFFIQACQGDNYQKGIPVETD
Sequence of Caspase-8 (Q14790 385-479 limits assumed): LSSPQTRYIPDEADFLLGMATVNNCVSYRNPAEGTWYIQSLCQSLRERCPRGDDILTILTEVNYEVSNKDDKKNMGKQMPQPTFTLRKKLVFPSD

`Cc1ccc(NC(=O)CSc2nnc(-c3ccco3)c(-c3ccco3)n2)cc1` was tested, and the IC50 (Bcl-2-like protein 10) was 19 µM (active), the IC50 [1] was 3.01 µM (active) and the IC50 [2] was 1.6 µM (active).
For `COc1cc(/C=C2\SC(N(C)c3ccc(O)cc3)=NC2=O)ccc1OCC(=O)O`, the IC50 [3] was > 100 µM (not active), the IC50 [4] was > 100 µM (inactive) and the IC50 [5] was > 100 µM (inactive). For the same compound, the IC50 [6] was > 100 µM (inactive).
For `O=C(O)C1Nc2c(Cl)cc(Cl)c(Cl)c2C2C=CCC12` (stereo not given), the IC50 [7] was 9.63 µM (active), the IC50 [3] was > 100 µM (not active) and the IC50 [8] was > 100 µM (not active). For the same compound, the IC50 [9] was > 100 µM (not active), the IC50 [10] was 14.2 µM (active) and the IC50 [11] was 12 µM (active). The IC50 [12] was 4.36 µM (active), the AC50 (Caspase-6) was 2 µM (active) and the AC50 (Caspase-7) was 34.1 µM (active). For the same compound, the AC50 (Caspase-8) was > 70 µM (inactive).
For `Cc1c([N+](=O)[O-])c(C(=O)Sc2ccc(Br)cc2)nn1C`, the EC50 (HEK293) was > 11.8 µM (not active), the EC50 [13] was > 35.4 µM (not active) and the EC50 [14] was > 35.4 µM (not active).
